Test results published in patent US6512002B2, “Methods of treatment for premature ejaculation in a male” (Pfizer Inc., priority 2000, dated 2003).

Assays:
total serum testosterone = assay: Testosterone elevation: total serum testosterone in a random, double-blind, parallel group, placebo-controlled study; format: in vivo, men
Experimental: In a random, double-blind, parallel group, placebo-controlled study, 3-{1-[4-(2-dimethylamino-ethoxy)-phenyl]-2-phenyl-but-enyl}-phenol was administered to men, aged 72 to 84 with below average serum testosterone levels. Subjects received either placebo or 3-{1-[4-(2-dimethylamino-ethoxy)-phenyl]-2-phenyl-but-enyl}-phenol as a sequential escalating dose, with subjects receiving 20 mg daily for the first month, 40 mg daily for the second month, and 60 mg daily for the final four months (remainder) of the study. Total serum testosterone was determined in the subjects at 4 weeks and at 2, 3 and 6 months.

melting point	Structure (SMILES)	Mean Percent Change From Baseline in Testosterone (total serum testosterone; 2 Months, men aged 72 to 84, escalating dose, 40 mg daily for the second month)	Mean Percent Change From Baseline in Testosterone (total serum testosterone; 3 Months, men aged 72 to 84, escalating dose, 60 mg daily for the final four months)	Mean Percent Change From Baseline in Testosterone (total serum testosterone; 6 Months, men aged 72 to 84, escalating dose, 60 mg daily for the final four months)	Mean Percent Change From Baseline in Testosterone (total serum testosterone; Week 4, men aged 72 to 84 with below average serum testosterone, 20 mg daily for the first month)	total serum testosterone versus subjects receiving placebo during the study (total serum testosterone; men aged 72 to 84, 20/40/60 mg daily escalating dose over 6 months, p=0.026)
162.8 to 163.6 °C	CCCOc1ncc(C(C)=O)cc1-c1nc2c(CC)n(C3CN(C(C)C)C3)nc2c(=O)[nH]1	–	–	–	–	–
–	CCC(=C(c1ccc(OCCN(C)C)cc1)c1cccc(O)c1)c1ccccc1 [Treatment Compound, 3-{1-[4-(2-dimethylamino-ethoxy)-phenyl]-2-phenyl-but-enyl}-phenol]	44.45%	41.47%	45.19%	36.20%	significant increase
